Measurements reported in the supplement of paper PMC10307832.

Assays:
Experiment in all cases: relative viability (nuclei count vs DMSO), 5 days (fraction); higher = more cells survive
[1] = compound: C1CNCCC1C2=CC(=NN2)C3=CC=NC=C3 + Cc1nc(NC(=O)N2CCC[C@H]2C(N)=O)sc1-c1ccnc(C(C)(C)C(F)(F)F)c1 [Alpelisib] (partner 2 µM)
In short: (§1)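 Relative viability equals treated-well nuclei counts divided by vehicle-well nuclei counts. Counts came from 4× images of lung cancer cell lines grown in 1536-well plates for 5 days after pin-tool dosing on the day after seeding. Dosing used one drug alone or a fixed anchor-drug dose plus five library-drug doses (not always all listed) in √10 steps, and values are medians of duplicate plates.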

[2] = compound: C1CNCCC1C2=CC(=NN2)C3=CC=NC=C3 + C[C@@H](Oc1cc(-c2cnn(C3CCNCC3)c2)cnc1N)c1c(Cl)ccc(F)c1Cl [Crizotinib] (partner 1 µM)
In short: as §1

[3] = compound: C1CNCCC1C2=CC(=NN2)C3=CC=NC=C3 + C[C@]1(O)C[C@@H](c2nc(-c3ccc4ccc(-c5ccccc5)nc4c3)c3c(N)nccn32)C1 [Linsitinib] (partner 1 µM)
In short: as §1

[4] = compound: C1CNCCC1C2=CC(=NN2)C3=CC=NC=C3 + O=C(c1cc(Cc2n[nH]c(=O)c3ccccc23)ccc1F)N1CCN(C(=O)C2CC2)CC1 [Olaparib] (partner 8 µM)
In short: as §1

| Cell Line | relative viability ([1]; first compound 0.08 µM) | relative viability ([1]; first compound 0.8 µM) | relative viability ([1]; first compound 2.53 µM) | relative viability ([1]; first compound 8 µM) | relative viability ([2]; first compound 0.08 µM) | relative viability ([2]; first compound 0.8 µM) | relative viability ([2]; first compound 2.53 µM) | relative viability ([2]; first compound 8 µM) | relative viability ([3]; first compound 0.08 µM) | relative viability ([3]; first compound 0.8 µM) | relative viability ([3]; first compound 2.53 µM) | relative viability ([3]; first compound 8 µM) | relative viability ([4]; first compound 0.08 µM) | relative viability ([4]; first compound 0.8 µM) | relative viability ([4]; first compound 2.53 µM) | relative viability ([4]; first compound 8 µM) |
| --- | --- | --- | --- | --- | --- | --- | --- | --- | --- | --- | --- | --- | --- | --- | --- | --- |
| 201T | 1.06 | 0.841 | 1.04 | 1.04 | 1.01 | 1.01 | 1.02 | 0.991 | 1.02 | 1.01 | 0.996 | 1.04 | 0.832 | 0.863 | 0.832 | 0.858 |
| A549 | 0.55 | 0.65 | 0.881 | 0.848 | 0.784 | 0.849 | 0.857 | 0.797 | 0.509 | 0.556 | 0.696 | 0.729 | 0.345 | 0.303 | 0.435 | 0.367 |
| A-427 | 1.05 | 1.04 | 1.07 | 1.06 | 0.874 | 0.93 | 0.944 | 0.846 | 1.09 | 1.09 | 1.15 | 1.07 | 0.589 | 0.775 | 0.752 | 0.716 |
| ABC-1 | 0.997 | 0.857 | 1.19 | 1.13 | 0.988 | 1.12 | 1.04 | 1.18 | 0.702 | 0.644 | 0.685 | 1.01 | 0.826 | 0.795 | 1.15 | 0.84 |
| BEN | 0.712 | 1.07 | 0.936 | 0.984 | 0.644 | 0.87 | 0.878 | 0.823 | 0.689 | 0.984 | 0.921 | 0.913 | 1.01 | 1.09 | 1.2 | 0.967 |
| CAL-12T | 0.929 | 1.56 | 1.51 | 1.28 | 0.473 | 0.74 | 0.716 | 0.774 | 0.792 | 0.754 | 0.9 | 0.872 | 0.676 | 0.665 | 0.753 | 0.719 |
| COR-L23 | 0.821 | 0.925 | 0.969 | 0.736 | 0.651 | 0.615 | 0.719 | 0.695 | 0.931 | 1.05 | 0.984 | 0.918 | 0.287 | 0.344 | 0.323 | 0.406 |
| COR-L 105 | 0.954 | 1.05 | 1.11 | 0.852 | 0.649 | 0.982 | 0.799 | 0.906 | 0.986 | 0.896 | 0.965 | 0.926 | 0.7 | 0.721 | 0.675 | 0.746 |
| Calu-6 | 0.896 | 1.05 | 1.03 | 1.04 | 0.838 | 0.91 | 0.833 | 0.814 | 0.877 | 0.941 | 0.994 | 0.884 | 0.565 | 0.6 | 0.62 | 0.497 |
| ChaGo-K-1 | – | – | – | – | 0.926 | 1.15 | 1.08 | 1.09 | – | – | – | – | 0.546 | 0.426 | 0.435 | 0.362 |
| EBC-1 | 0.926 | 0.704 | 0.819 | 0.857 | 0.202 | 0.219 | 0.233 | 0.192 | 0.899 | 0.938 | 1.09 | 0.949 | 0.778 | 0.722 | 0.804 | 0.741 |
| EKVX | 0.738 | 0.573 | 1.03 | 0.818 | 1.05 | 0.807 | 0.956 | 0.925 | 1.06 | 0.865 | 1.13 | 0.984 | 0.882 | – | 1.05 | 0.755 |
| EMC-BAC-2 | 0.755 | 0.659 | 0.72 | 0.758 | 0.705 | 0.772 | 0.751 | 0.793 | 0.78 | 0.806 | 0.818 | 0.771 | 0.346 | 0.521 | 0.476 | 0.477 |
| NCI-H522 | – | – | – | – | – | – | – | – | – | – | – | – | 0.63 | 0.712 | 0.726 | 0.803 |
| NCI-H1395 | 0.977 | 0.77 | 1.46 | 0.975 | – | – | – | – | 1.02 | 0.886 | 1.24 | 0.977 | 0.46 | 0.404 | 0.447 | 0.522 |
| NCI-H1563 | 0.709 | 0.932 | 0.95 | 0.989 | 0.644 | 0.766 | 0.85 | 0.941 | 0.868 | 1.13 | 1.24 | 1.25 | – | – | – | – |
| NCI-H1648 | – | – | – | – | – | – | – | – | – | – | – | – | 1.02 | 0.817 | – | 1.3 |
| NCI-H1650 | – | – | – | – | 0.43 | 1.08 | 1.07 | 0.963 | – | – | – | – | 0.613 | 0.948 | 0.795 | 0.69 |
| NCI-H1793 | 0.659 | 0.569 | 0.783 | 0.739 | – | – | – | – | 0.67 | 0.669 | 0.922 | 0.876 | 0.748 | – | 0.902 | 0.953 |
| NCI-H2170 | 0.734 | 0.761 | 0.81 | 0.684 | 1.04 | 1.23 | 1.42 | 1.15 | – | – | – | – | 0.606 | 0.632 | 0.626 | 0.609 |
| NCI-H2342 | – | – | – | – | – | – | – | – | – | – | – | – | 0.419 | 0.388 | 0.486 | 0.491 |
| SW 900 | – | – | – | – | – | – | – | – | – | – | – | – | 1.02 | – | 0.868 | 0.861 |
